In PMC8957246, “Synthesis and diverse biological activity profile of triethylammonium isatin-3-hydrazones” (ADMET & DMPK, 2022):
In brackets after ≈: the same amount, converted by molar mass. Structures can show the parent of a compound that is named as a salt. Marks after values point to notes of the source that are not given here.

Assays:
[1] = test system: platelets (ADP-induced aggregation); assay: Platelet aggregation (Born method), ADP-induced; format: cell-based; conditions: Homo sapiens, ADP 20 μg/mL, final concentration 2×10^–3 mol/L, median (25-75 percentiles), read-out: Platelets aggregation, % of control, ADP
Protocol: (§1) The in vitro experiments were performed using the blood of healthy male donors aged 18-24 years (total 54 donors). The study was approved by the Ethics Committee of Federal State Budgetary Educational Institution of Higher Education at the Bashkir State Medical University of the Ministry of Health of Russian Federation (No.2 dated 17.10.2012). Informed consent was obtained from all participants before blood sampling. The blood was collected from the cubital vein using the system of vacuum blood collection BD Vacutainer® (Becton, Dickinson and Company, USA). A 3.8 % sodium citrate solution in a 9:1 ratio was used as a venous blood stabiliser. The study of the effect on platelet aggregation was performed using the Born method using the aggregometer «AT-02» (SPC Medtech, Russia). The assessment of antiplatelet activity of the studied compounds and reference preparations was started with the final concentration of 2×10^–3 mol/L. Adenosine diphosphate (ADP; 20 μg/mL) and collagen (5 mg/mL) manufactured by Tehnologia-Standart Company, Russia, were used as inducers of aggregation. The study on the anticoagulant activity was performed by standard recognised clotting tests using the optical two-channel automatic analyser of blood coagulation Solar CGL 2110 (CJSC SOLAR, Belarus). The following parameters were studied: activated partial thromboplastin time (APTT), prothrombin time (PT) and fibrinogen concentrations according to the Clauss method. The determination of anticoagulant activity of the studied compounds and reference preparation was performed in a concentration of 5×10^–4 g/mL using the reagents manufactured by Tehnologia-Standart Company (Barnaul, Russia). The results of the study were processed using the statistical package Statistica 10.0 (StatSoft Inc, USA). The Shapiro–Wilk’s test was used to check the normality of actual data distribution. The form of distribution of the data obtained differed from the normal one; therefore, non-parametric methods were used for further analysis. The data were presented as medians and 25 and 75 percentiles. Analysis of variance was conducted using Kruskal–Wallis test. A p value of 0.05 was considered statistically significant.

[2] = test system: platelets (collagen-induced aggregation); assay: Platelet aggregation (Born method), collagen-induced; format: cell-based; conditions: Homo sapiens, collagen 5 mg/mL, final concentration 2×10^–3 mol/L, median (25-75 percentiles), read-out: Platelets aggregation, % of control, Collagen
Protocol: as §1

Micrococcus luteus B-109 = assay: Bactericidal activity, agar diffusion, M. luteus; format: cell-based
Text: (§2) Plant pathogenic bacterial strains Micrococcus luteus B-109, Pectobacterium atrosepticum 1043, Pectobacterium carotovorum subsp. carotovorum MI, Pseudomonas fluorescens EL-2.1, and Xanthomonas campestris B-610 and fungal strain Fusarium oxysporum IBPPM 543 were obtained from the specialized scientific culture collection of IBPPM RAS (WFCC no. 975, WDCM no. 1021) (CM IBPPM). Pathogenic fungus Phytophthora cactorum VKM F-985 provided by the All-Russian Collection of Microorganisms (VKM) and deposited at A.E. Favorsky Irkutsk Institute of Chemistry, SB RAS, was also used as test organism. Bacteria M. luteus, P. carotovorum subsp. carotovorum, P. atrosepticum, and Ps. fluorescens were grown in meat-peptone medium (BP), and X. campestris was grown in the medium with glucose, yeast extract, and calcium carbonate (GYCa). Solid media contained Bacto agar (18 g/L); pH was adjusted to 7.2-7.4. All bacterial cultures were grown at 28°C. The mycelial cultures of F. oxysporum and P. cactorum were grown on a glucose-peptone-yeast (GPY) nutrient medium at 27 °C. For inoculum preparation, both fungal strains were initially grown on the agar GPY in Petri dishes and then transferred into the seed medium by punching out 5 mm of the agar plate culture with a self-designed cutter.
(§3) Antibacterial and antifungal activities of the compounds were explored using the agar diffusion method and the technique of a phytopathogen radial growth inhibition. Method of diffusion in agar (measuring the diameter of growth inhibition zones) was used for determining the bactericidal activity. The 6-mm wells were made in ager medium (GYCa for Xanthomonas campestris or BP for other bacteria). Bacterial suspensions were distributed over the agar surface, and the tested compound's solution (150 μl) was added to each well. The width of growth inhibition zones around the wells was determined after incubation for 36-40 h.
(§4) The solutions of tested compounds were prepared with a concentration of 2 mmol/l (stock solution). For comparison, test compounds were also commonly applied disinfecting agents and antibiotics.

[3] = test system: Pectobacterium atrosepticum 1043; assay: Bactericidal activity, agar diffusion, P. atrosepticum; format: cell-based
Text: as §2, §3, §4

[4] = test system: Pectobacterium carotovorum subsp. carotovorum MI; assay: Bactericidal activity, agar diffusion, P. carotovorum; format: cell-based
Text: as §2, §3, §4

[5] = test system: Pseudomonas fluorescens EL-2.1; assay: Bactericidal activity, agar diffusion, Ps. fluorescens; format: cell-based
Text: as §2, §3, §4

[6] = test system: Xanthomonas campestris B-610; assay: Bactericidal activity, agar diffusion, X. campestris; format: cell-based
Text: as §2, §3, §4

[7] = test system: Fusarium oxysporum IBPPM 543; assay: Fungicidal activity, radial growth inhibition, F. oxysporum; format: cell-based; conditions: for Inhibition value, I (%): C 10 μg/mL
Text: as §2
(§5) For the fungicidal activity analysis, radial growth (colony diameters) of the fungi on a solid medium in the absence and in the presence of the compounds 3a,c-g solutions at various concentrations were compared. The method consisted of the following: sterile, melted and then cooled to about 60°C GPY agar medium (20.0 ml) was mixed with the precisely measured volumes of the solutions under question, and poured into a sterile Petri dish (90 mm i.d.). After solidification of GPY agar, the media were inoculated by the fungus using 10-day-old cultures of F. oxysporum or P. cactorum. The inoculation was done by transferring a 5-mm (i.d.) GPY-agar block covered with mycelium to the center of the Petri dish followed by incubation in a thermostat at 27°C. The fungicidal effect was scored by the size of mycelium colony on a Petri dish compared to the control without fungicidal admixtures to GPY agar. Each treatment was performed in at least four replicates in two independent experiments. The observation period ended when the control Petri dish was filled with mycelium (usually after 12 days). The inhibition of the phytopathogen colony growth by the compounds 3a,c-g or fludioxonil solutions was calculated as a percentage by which the mycelium radial propagation was decreased compared to the unaffected control, the latter was taken as 100 % of growth (or zero percent of inhibition). The EC50 value was calculated as the compound concentration at which the radial growth of the fungus colony was decreased by 50 % relative to the non-fungicidal control, according to the formula EC50 = 50C/I based on the approach developed e.g., in [34, 35].
as §4

[8] = test system: Phytophthora cactorum VKM F-985; assay: Fungicidal activity, radial growth inhibition, P. cactorum; format: cell-based; conditions: for Inhibition value, I (%): C 10 μg/mL
Text: as §2, §5, §4

[9] = test system: Staphylococcus aureus ATCC 6538P FDA 209P; assay: Antimicrobial activity, serial dilution (MIC/MBC), Sa; format: cell-based; conditions: Staphylococcus aureus
Protocol: (§6) The antimicrobial activity of the test compounds was determined by the serial dilution technique in Muller Hinton Broth 2 and in Sabouradu broth for fungi. The cultures used for testing included Gram-positive bacteria: Staphylococcus aureus ATCC 6538P FDA 209P, Bacillus cereus ATCC 10702 NCTC 8035, Enterococcus faecalis ATCC 29212; Gram-negative bacteria: Escherichia coli ATCC 25922, Pseudomonas aeruginosa ATCC 9027, and fungi: Trichophyton mentagrophytes var. gypseum 1773, and Candida albicans ATCC 10231; methicillin-resistant strains of S. aureus (MRSA) was obtained from hospital patients with chronic tonsillitis in the Republican Clinical Hospital (Kazan, Russia). The bacterial load was 3.0 × 10^5 cfu/ml. The fungi load was 2.0 × 10^3 cfu/ml. The results were recorded every 24 h for 5-7 days. Cultures were incubated at 37 °C. The experiment was repeated three times. […] The minimum inhibitory concentration (MIC) was defined as the minimum concentration of a compound that inhibits the growth of the corresponding test microorganism. The growth of bacteria, as well as the absence of the growth due to the bacteriostatic action of compounds, were recorded.
(§7) Synthesized compounds were further evaluated for antimicrobial activity against test microorganisms: Staphylococcus aureus ATCC 209p (Sa), Bacillus cereus ATCC 8035 (Bc), Escherichia coli CDC F-50 (Ec), Enterococcus faecalis (Ef), Pseudomonas aeruginosa ATCC 9027, Aspergillus niger BKMF-1119, Trichophyton mentagrophytes var. gypseum 1773, and Candida albicans 855-653 including methicillin-resistant strains of S. aureus (MRSA 1 and MRSA 2). The minimum inhibitory (MIC) and minimum bactericidal (MBC) concentrations of ammonium salts were determined against these pathogens (Table 1). Due to the lack of activity of compounds 3a-g against Gram-negative bacterial strains and some fungi, the corresponding data are not shown.

[10] = test system: Bacillus cereus ATCC 10702 NCTC 8035; assay: Antimicrobial activity, serial dilution (MIC/MBC), Bc; format: cell-based; conditions: Bacillus cereus
Protocol: as §6, §7

[11] = test system: Enterococcus faecalis ATCC 29212; assay: Antimicrobial activity, serial dilution (MIC/MBC), Ef; format: cell-based; conditions: ATCC29212
Protocol: as §6, §7

[12] = test system: methicillin-resistant strains of S. aureus (MRSA-1); assay: Antimicrobial activity, serial dilution (MIC/MBC), MRSA-1; format: cell-based; conditions: Staphylococcus aureus
Protocol: as §6, §7

[13] = test system: methicillin-resistant strains of S. aureus (MRSA-2); assay: Antimicrobial activity, serial dilution (MIC/MBC), MRSA-2; format: cell-based; conditions: Staphylococcus aureus
Protocol: as §6, §7

[14] = test system: activated partial thromboplastin time (intrinsic coagulation pathway); assay: Anticoagulant activity, clotting test APTT; set-up: species or system human; conditions: concentration 5×10^–4 g/mL; median (25-75 percentiles)
Protocol: as §1

Compound: CC[N+](CC)(CC)CC(=O)N/N=C1\C(=O)N(Cc2cc(C(C)(C)C)c(O)c(C(C)(C)C)c2)c2ccccc21 (as salt: bromide) [Compound 3a, 2-(2-(1-(3,5-Di-tert-butyl-4-hydroxybenzyl)-2-oxoindolin-3-ylidene)hydrazinyl)-N,N,N-triethyl-2-oxoethanammonium bromide]
- melting point: 212 °C

Compound: CC[N+](CC)(CC)CC(=O)N/N=C1\C(=O)N(Cc2cc(C(C)(C)C)c(O)c(C(C)(C)C)c2)c2c(C)cccc21 (as salt: bromide) [Compound 3b, 2-(2-(1-(3,5-Di-tert-butyl-4-hydroxybenzyl)-7-methyl-2-oxoindolin-3-ylidene)hydrazinyl)-N,N,N-triethyl-2-oxoethanammonium bromide]
- melting point: 154 °C

Compound: CCc1cccc2c1N(Cc1cc(C(C)(C)C)c(O)c(C(C)(C)C)c1)C(=O)/C2=N\NC(=O)C[N+](CC)(CC)CC (as salt: bromide) [Compound 3c, 2-(2-(1-(3,5-Di-tert-butyl-4-hydroxybenzyl)-7-ethyl-2-oxoindolin-3-ylidene)hydrazinyl)-N,N,N-triethyl-2-oxoethanammonium bromide]
- melting point: 163 °C

Compound: CC[N+](CC)(CC)CC(=O)N/N=C1\C(=O)N(Cc2cc(C(C)(C)C)c(O)c(C(C)(C)C)c2)c2cccc(Br)c21 (as salt: bromide) [Compound 3e, 2-(2-(1-(3,5-Di-tert-butyl-4-hydroxybenzyl)-4-bromo-2-oxoindolin-3-ylidene)hydrazinyl)-N,N,N-triethyl-2-oxoethanammonium bromide]
- melting point: 194 °C

Compound: CC(=O)Oc1ccccc1C(=O)O [Acetylsalicylic acid, reference compound]
- inhibition at 2000 µM [1]: 13.7%
- inhibition at 2000 µM [2]: 14.7%

Compound: N=C(NCCCCCCNC(=N)NC(=N)Nc1ccc(Cl)cc1)NC(=N)Nc1ccc(Cl)cc1 [Chlorohexidin, reference compound]
- width of the inhibition zone (Micrococcus luteus B-109; 500 μg/mL): 5 mm
- width of the inhibition zone ([3]; 500 μg/mL): 4 mm
- width of the inhibition zone ([4]; 500 μg/mL): 5 mm
- width of the inhibition zone ([5]; 500 μg/mL): 4 mm
- width of the inhibition zone ([6]; 500 μg/mL): 5 mm

Compound: N#Cc1c[nH]cc1-c1cccc2c1OC(F)(F)O2 [Fludioxonil, reference compound]
- Inhibition value, I (%) ([7]; age of the fungus 3 days): 38%
- Inhibition value, I (%) ([7]; age of the fungus 5 days): 23%
- Inhibition value, I (%) ([7]; age of the fungus 7 days): 6%
- Inhibition value, I (%) ([7]; age of the fungus 9 days): 4%
- EC50 ([7]; Fusarium oxysporum, IBPPM543, 168 h, read-out: EC50, μg/mL at day 7): 83.3 µg/mL (≈ 336 µM)
- Inhibition value, I (%) ([8]; age of the fungus 3 days): 46%
- Inhibition value, I (%) ([8]; age of the fungus 5 days): 38%
- Inhibition value, I (%) ([8]; age of the fungus 7 days): 18%
- Inhibition value, I (%) ([8]; age of the fungus 9 days): 12%
- Inhibition value, I (%) ([8]; age of the fungus 12 days): 9%
- EC50 ([8]; Phytophthora cactorum, 168 h, read-out: EC50, μg/mL at day 7): 27.8 µg/mL (≈ 112 µM)

Compound: CCn1cc(C(=O)O)c(=O)c2cc(F)c(N3CCNCC3)cc21 [Norfloxacin, reference compound]
- MIC [9]: 7.5 ± 0.5 µM (≈ 2.4 µg/mL)
- MBC ([9]; read-out: MBC (converted)): 7.5 ± 0.6 µM (≈ 2.4 µg/mL)
- MBC [10]: 24.4 ± 2.1 µM (≈ 7.79 µg/mL)
- MIC ([10]; read-out: MIC): 24.4 ± 2.1 µM (≈ 7.79 µg/mL)
- MBC [11]: 7.5 ± 0.6 µM (≈ 2.4 µg/mL)
- MIC [11]: 7.5 ± 0.5 µM (≈ 2.4 µg/mL)
- MIC [12]: 391 ± 30 µM (≈ 125 µg/mL)
- MIC [13]: 30 ± 2.6 µM (≈ 9.58 µg/mL)
- zone of inhibition at 500 µg/mL (Micrococcus luteus B-109; Micrococcus luteus, B109, 500 μg/mL, read-out: width of the inhibition zone): 7 mm
- zone of inhibition at 500 µg/mL ([3]; Pectobacterium atrosepticum, 1043, 500 μg/mL, read-out: width of the inhibition zone): 7 mm
- zone of inhibition at 500 µg/mL ([4]; Pectobacterium carotovorum, 500 μg/mL, read-out: width of the inhibition zone): 8 mm
- zone of inhibition at 500 µg/mL ([5]; Pseudomonas fluorescens, EL2.1, 500 μg/mL, read-out: width of the inhibition zone): 8 mm
- zone of inhibition at 500 µg/mL ([6]; Xanthomonas campestris, B610, read-out: width of the inhibition zone): 7 mm

Compound: [Na+].[O-]Cl [sodium hypochlorite, reference compound]
- width of the inhibition zone (Micrococcus luteus B-109; 1000 μg/mL): 2.5 mm
- width of the inhibition zone ([3]; 1000 μg/mL): 4 mm
- width of the inhibition zone ([4]; 1000 μg/mL): 3 mm
- width of the inhibition zone ([5]; 1000 μg/mL): 4 mm
- width of the inhibition zone ([6]; 1000 μg/mL): 4 mm

Compound: Heparin sodium [reference compound]
- APTT, % of control [14]: +20.3 (19.7-21.4) ^** % of control
